# Measured values taken from paper PMC5936786, “Discovery of Natural Products as Novel and Potent FXR Antagonists by Virtual Screening” (Frontiers in Chemistry, 2018).
# Entries after “also recorded” stand apart in the source; their conditions may differ. Where two headings read alike, the source gives them in different places.
# Experiments:
# [1] = system: estrogen receptor (ER); conditions: cited from earlier work; for agonistic profiles against ER (in words): ref Cao et al., 2013
# [2] = molecular target: T1, hFXR-LBD (interaction with coactivator SRC-1) (Homo sapiens, UniProt Q96RI1); test: Y2H agonist assay: SRC-1 recruitment to FXR-LBD (α-galactosidase readout); format: cell-based; conditions: GAtreated/GADMSO (DMSO = 1.00), average of triplicate
# T1 construct: human FXRα-LBD (200-473 AA) was sub-cloned into vector pGBKT-7; expressed in transfected cells; host or cells: Saccharomyces cerevisiae strain AH109 (Clontech), co-transformed with pGBKT7-FXR LBD and pGADT7-SRC-1
# T1 sequence (Q96RI1 214-486): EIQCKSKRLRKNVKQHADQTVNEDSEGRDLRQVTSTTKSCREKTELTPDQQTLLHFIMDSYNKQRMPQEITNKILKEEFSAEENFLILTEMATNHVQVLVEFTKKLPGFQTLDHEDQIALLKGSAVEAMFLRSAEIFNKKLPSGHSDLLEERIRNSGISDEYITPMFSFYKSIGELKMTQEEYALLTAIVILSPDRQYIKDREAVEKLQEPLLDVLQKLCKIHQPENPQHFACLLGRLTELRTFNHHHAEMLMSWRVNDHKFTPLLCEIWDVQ
# Description: Each experiment was repeated three times independently.
# agonistic activation=GAtreated/GADMSOinhibition rate(%)=GACDCA−GAtreated/GACDCA−GADMSO
# where GA indicates α-galactosidase activity.
# [3] = molecular target: T2, hFXR-LBD (interaction with coactivator SRC-1) (Homo sapiens, UniProt Q96RI1); test: Y2H antagonist assay: inhibition of CDCA-induced SRC-1 recruitment to FXR-LBD (α-galactosidase readout); conditions: for antagonistic activity against FXR (in words): coactivator recruitment assay; for inhibition at 25 µM: read-out: Inhibition rate % (25 μM), 25 μM compound plus 10 μM CDCA, 24 h, average of triplicate
# T2 sequence (Q96RI1 200-472 isoform Q96RI1-2): T1 sequence (Q96RI1 214-486)
# Description: We performed Y2H assay to determine the agonistic or antagonistic activities of the compounds. […] The quantitative α-galactosidase activity assays were carried out by using PNP-α-Gal as the substrate according to the Clontech manual. Each experiment was repeated three times independently.
# • Vortex the overnight culture tube for 0.5–1 min to disperse cell clumps and then each sample needs 200 μL to record the exact OD600. • Centrifuge the tube at 14,000 rpm (10,000 × g) for 30 s. Incubate 16 μL cell culture medium supernatant with 48 μL PNP-α-Gal at 30°C for 60 min. Be sure to cover microtiter plates with a lid or parafilm to prevent evaporation. • Terminate the reaction by adding 136 μL of 1 μM sodium carbonate. Record the optical density of each sample at 410 nm.
# The α-galactosidase activity was calculated according to the following formula:
# α−galactosidase activity[milliunits/(mL×cell)]​ ​​​=OD410×Vf×1000/(ε×b)×t×Vi×OD600
# The agonistic activation and inhibition rates (%) were calculated as follows:
# [4] = system: FXR; conditions: cited from earlier work
# [5] = system: FXR; conditions: FXR antagonist, cited from earlier work
# [6] = system: FXR; conditions: FXR antagonist, cited from earlier work; remark: listed apart in the source
# [7] = system: FXR; parameters: method as in Dussault et al., 2003; conditions: FXR antagonist; ref Dussault et al., 2003; cited from earlier work
# [8] = system: FXR; parameters: method as in Xu et al., 2015; conditions: FXR antagonist; ref Xu et al., 2015; cited from earlier work
Structure (SMILES),Agonistic activation (25 μM) [2],IC50 [3] [µM],antagonistic activity against FXR (in words) [3],inhibition at 25 µM [3] [%],also measured
"C/C(=C/C(=O)C[C@@H](C)[C@]1(C)CC[C@@]2(C)C3=CCC4C(C)(C)[C@H](O)CC[C@]4(C)[C@@H]3CC=C21)C(=O)O (stereo partly drawn) [Compound 1a, Abiesatrine B]",1.09,13.5,moderate antagonistic activity,> 50,"agonistic effect against estrogen receptor (ER) (in words) ([1]; reported in a previous study, no reference given): moderate agonistic effect"
"C/C(=C/C(=O)C[C@@H](C)[C@H]1CC[C@@]2(C)C3=CCC4C(C)(C)C(=O)CC[C@]4(C)C3CC[C@]12C)C(=O)O (stereo partly drawn) [Compound 1b, (24Z)-3,23-Dioxo-9βH-lanosta-7,24-dien-27-oic acid]",1.12,> 25,no detectable antagonistic activity,22.7,
"C/C(=C\CC[C@@H](C)[C@H]1CC[C@@]2(C)C3=CCC4C(C)(C)C(=O)CC[C@]4(C)C3CC[C@]12C)C(=O)O (stereo partly drawn) [Compound 1c, Abiesatrine D]",0.93,> 25,no detectable antagonistic activity,12.8,
"CC(C)(O)c1ccc2c(c1)C(=O)CC1[C@](C)(C(=O)O)CCC[C@]21C (stereo partly drawn) [Compound 2a, 15-Hydroxy-7-oxo-8,11,13-abietatrien-18-oic acid]",1.05,1.29,,,fold stronger antagonistic activity compared with compound 1a ([3]; vs compound 1a): 10 fold
"CC(=O)c1ccc2c(c1)C(=O)CC1[C@](C)(C(=O)O)CCC[C@]21C (stereo partly drawn) [Compound 2b, 17-Nor-7,15-dion-8,11,13-abietatrien-18-oic acid]",0.90,> 25,no observed activity,10.1,
"O=C(CCCCc1ccccc1)c1ccc(O)cc1 [Compound 3a, Daphneone]",1.03,1.79,,,fold higher antagonistic activity against FXR compared to guggulsterone [3]: 3 fold
"O=C(CC(O)CCc1ccccc1)c1ccc(O)cc1 (stereo not drawn) [Compound 3b, Daphneolon]",0.76,> 25,,41.4,
"O=C(/C=C/CCc1ccccc1)c1ccc(O)cc1 [Compound 3c, Daphnenone]",1.29,5.46,,> 50,
"O=C(O)C=Cc1ccc(O)cc1 [Compound 3d, P-coumaric acid]",1.08,14.1,moderate antagonistic activities; also recorded: moderate antagonistic effects,52.8,agonistic profiles against ER (in words) [1]: agonistic profiles
"CCOC(=O)c1ccc(O)cc1 [Compound 3e, Ethylparaben]",0.93,19.3,moderate antagonistic activities; also recorded: moderate antagonistic effects,60.1,agonistic profiles against ER (in words) [1]: agonistic profiles
CC1(CO)CCCC2(C)C1CCC1(C)C2CC(O)C2(C)C3COC(=O)C3=CCC12 (stereo not drawn) [Compound 8],,,,,"IC50 ([5]; ref Nam et al., 2007): 2400 nM"
CC(C)=CCCC1=C[C@@H](C/C(C)=C/CC[C@@]2(C)C=Cc3cc(O)cc(C)c3O2)OC1=O [Compound 10],,,,,"IC50 ([5]; ref Choi et al., 2011): 1500 nM"
COc1cc(/C=C2\C(=O)N(c3cccc([N+](=O)[O-])c3)N=C2c2ccccc2)ccc1O [Compound 11],,,,,"IC50 ([6]; ref Huang et al., 2012): 8.96 µM"
CCCCCCCc1c(\C(C)=C/C=C/C(C)=C/C(=O)O)cc(C(C)C)cc1C(C)C [Compound 14],,,,,IC50 [7]: 300 nM
CCCCC/C=C/C=C1/C=CC(=O)[C@@H]1C/C=C\CCCC(=O)O [Compound 17],,,,,"IC50 ([6]; ref Xu et al., 2013): 7.25 µM"
"CN(C)c1cc(Cl)c(C(=O)N(Cc2ccccc2)c2ccc(O)c(C(C)(C)C)c2)c(Cl)c1 [Compound 18, N-benzyl-N-(3-(tert-butyl)-4-hydroxyphenyl)-2,6-dichloro-4-(dimethylamino) benzamide]",,,,,IC50 [8]: 3.4 µM
"COC(=O)/C=C/c1cccc(N(Cc2ccc(-c3ccc(N(C)C)cc3)cc2)C(=O)C2CCCCC2)c1 [Fexeramine, Fexaramine]",,,,,"EC50 ([4]; reported FXR modulators, Figure 1, reference not given, read-out: EC50, FXR agonists (Figure 1)): 25 nM"
